Assays:
mouse = conditions: cited from earlier work
[1] = Effect of D-glyceric acid on blood alcohol level in rats after intraperitoneal alcohol; format: in vivo, rat; conditions: on average, both fasted and nonfasted rats; versus same alcohol dose without D-GLAC
Method: 40 animals were fasted for 12 hours before the experiment, and 40 were fed normally. In the experiment, each rat received intraperitoneally an intoxicating single dose of alcohol (1.2 g/kg, 10% w/v) in physiological saline. […] The blood samples were then analysed by headspace gas chromatography.

ALDH = test: Formation of acetic acid from AcA by ALDH/NADH in the presence of D-GLAC (Reaction 6), gas chromatography; format: biochemical; conditions: 3 mmol D-GLAC, 0.3 mmol AcA, 5 units ALDH, NADH, phosphate buffer pH 6.865, stirred 6 hours; GC analysis
[2] = large doses (1-5 g/kg) taken together with the alcohol (Crownover et al. 1986); cited from earlier work
[3] = oral administration during alcohol drinking (Tabakoff et al. 1989); cited from earlier work

SMILES: CC=O [AcA, acetaldehyde]
- LD100 (mouse; acute toxicity): 750 mg/kg

SMILES: O=C(O)C(O)CO [D-GLAC, D-glyceric acid]
- Lower blood alcohol concentration than the corresponding control group [1]: 20%
- Formation of acetic acid from AcA (ALDH): acetic acid had been formed

SMILES: CCO [alcohol, ethyl alcohol]
- LD70 (mouse; in vivo): 6500 mg/kg

SMILES: O=C(CO)[C@@H](O)[C@H](O)[C@H](O)CO [fructose]
- Enhancement of alcohol elimination rate [2]: up to 20%

SMILES: CSCC[C@H](N)C(=O)O [methionine]
- Reduction in blood AcA concentrations [3]: 20%

Reference: patent US7666909B2, “Enhancement of alcohol metabolism” (priority 2005, dated 2010)
